Experimental findings from US9056865B2, “Pyridine-2-derivatives as smoothened receptor modulators” (Pfizer Inc., priority 2010, dated 2015) are described below.

For assay [1], the system named is Gli-Luc/MEF cells. In words: Gli-Luc/MEF assay. The note with it: Mus musculus, MEF; Shh-stimulated luciferase, 48 hours. The format is cell-based, mouse. The method, then: The Gli-Luc/MEF cells obtained from Gli-Luc transgenic mice contain a luciferase reporter gene under the control of the Gli response element. Luciferase activity stimulated with Sonic hedgehog ligand was inhibited by Smo inhibitors, and IC50 was subsequently calculated.
Plates were incubated at 37° C. and 5% CO2 overnight. On day two, cells were dosed with test compounds at a final concentration ranging from 3 μM to 50 μM at a 3-time series dilution. Immediately after dosing cells with compounds, recombinant mouse sonic hedgehog (Shh, R&D Systems 464-SH) was added to a final concentration of 2 μg/mL. The cells were incubated with compounds and Shh for 48 hours at 37° C. and 5% CO2. Luciferase assays were conducted on Day 4 using the Bright-Glo Luciferase assay system (Promega E2620) according to Promega's protocol. Briefly, Bright-Glo luciferase reagent was made up and 25 μL were added to each well of the 384-well plate containing media. Plates were kept at room temperature for 5 minutes, and then read on an Envision Luminescence plate reader (Perkin-Elmer). IC50 of the inhibition was calculated by using GraphPad Prism.

The target in assay [2] is human Smo (Homo sapiens (Human), UniProt Q99835). Briefly: Smo radioligand competition binding assay. The note with it: for inhibition at 0.05 µM: 0.05 μM test compound, read-out: Smo % inh. @ 0.05 μM. The method, then:
Smo Radioligand Competition Binding Assay
Membranes were prepared from a stable cell line created in HEK293FlpIn-TetR cells (Invitrogen) using Flp recombinase-mediated insertion of the pSecTag-FRT/V5-His vector containing a cDNA encoding amino acids […] of human Smo fused to the murine Igk leader sequence to produce a cell surface expressed Smo 181-781 protein. Hygromycin-resistant clones were obtained and stained for LacZ expression (no expression indicates a correct knock-in of fusion cDNA). LacZ-negative cells were analyzed for binding tritiated Smo antagonists. For membrane preparation, the HEK293 cells expressing Smo 181-781 were grown to 90% confluence in nine to fifteen 245 mm×245 mm×22 mm dishes, washed with Dulbecco's PBS (15 mL per dish) and harvested via scraping in 10 mL of DPBS. The cells were collected and centrifuged at 1500 rpm (400×g) for 10 min at 4° C. The cell pellets were re-suspended in 40 mL of cold DPBS and washed by centrifugation at 2300 rpm (950×g max) for 10 minutes at 4° C. The supernatant was aspirated and the cell pellet was snap frozen in a methanol/dry ice bath and stored at −70° C. For membrane preparation, 15 mL of Membrane Preparation Buffer (50 mM Tris-HCl pH 7.5, 250 mM sucrose with Roche complete protease cocktail tablets) was added to the tube containing the cell pellet, then cells are rapidly thawed, and homogenized using an Ultra-Turrax T8 (IKA Labortechnik) set on “6” for 15 seconds for 5-6 times in icy water bath. This homogenate was diluted up to 50 mL using Membrane Preparation Buffer and centrifuged at 35,000 rpm in a Beckman Ti45 rotor (140,000×g) for 35 minutes at 4° C. followed by aspiration of the supernatant and re-suspension of the pellet in 5 mL of Assay Buffer (50 mM Tris-HCl pH 7.5, 100 mM NaCl, 25 mM MgCl2, 1 mM EDTA, and 0.1% protease free bovine serum albumin). The re-suspended pellet was then homogenized in a glass tissue grinder. The re-suspended membranes were aliquoted (0.5 mL aliquots), snap frozen and stored at −70° C. Total protein in the membrane preparation was determined using the Pierce BCA protein assay (Pierce Chemical).
For the binding competition assay, 100 μL of Assay Buffer was added to all the wells of a 96 well GF/B filter plate (Millipore MultiScreen-HTS-FB cat# MSFBN6B50) for 10 minutes to pre-wet the filter prior to evacuation of the buffer (8 inches Hg for 8 seconds). To the pre-wet wells is added: 20 μL of Assay Buffer, 10 μL diluted test agent, 20 μL of a tritiated Smo antagonist (15 nM stock solution), and 50 μL of membrane preparation (40 μg total protein per well). The plates are sealed and mixed at room temperature for 5 min, incubated at room temperature for 2 hours, then washed 5 times with 100 μL/each of wash buffer and vacuum dried for 8 seconds at 8 inches Hg. The plate is then dried for one hour in a 60° C. oven prior to the addition of 45 μL of Microscint 20 (Packard, #6013621) to each well and incubation at RT for 30 minutes to 1 hour. The plate is counted in a TopCount scintillation counter (Perkin Elmer).
Data analysis uses Excel for % Inhibition and Graphpad Prism for IC50 calculation. Total binding (TB, in the absence of inhibitors)=average of tritiated Smo antagonist 3 nM+Smo membrane (40 μg/wells (approx 5000-7000 CPM)). Non-specific binding (NSB)=average of tritiated Smo antagonist (3 nM)+cold Smo antagonist (30 μM)+Smo membrane (approx 600-1200 CPM). Specific binding (SB)=(total binding−non-specific binding). % Inhibition=[1−(compound Specific binding/control Specific binding)]×100%. IC50 is calculated by fitting the data to the four parameter sigmoidal dose-response curve (variable slope) Y=Bottom+(Top-Bottom)/(1+10^((LogEC50−X)*HillSlope)). X is the logarithm of the inhibitor concentration. Y is the response; Y starts at Bottom and goes to Top with a sigmoid shape.

Sequence of human Smo (Q99835 181-787): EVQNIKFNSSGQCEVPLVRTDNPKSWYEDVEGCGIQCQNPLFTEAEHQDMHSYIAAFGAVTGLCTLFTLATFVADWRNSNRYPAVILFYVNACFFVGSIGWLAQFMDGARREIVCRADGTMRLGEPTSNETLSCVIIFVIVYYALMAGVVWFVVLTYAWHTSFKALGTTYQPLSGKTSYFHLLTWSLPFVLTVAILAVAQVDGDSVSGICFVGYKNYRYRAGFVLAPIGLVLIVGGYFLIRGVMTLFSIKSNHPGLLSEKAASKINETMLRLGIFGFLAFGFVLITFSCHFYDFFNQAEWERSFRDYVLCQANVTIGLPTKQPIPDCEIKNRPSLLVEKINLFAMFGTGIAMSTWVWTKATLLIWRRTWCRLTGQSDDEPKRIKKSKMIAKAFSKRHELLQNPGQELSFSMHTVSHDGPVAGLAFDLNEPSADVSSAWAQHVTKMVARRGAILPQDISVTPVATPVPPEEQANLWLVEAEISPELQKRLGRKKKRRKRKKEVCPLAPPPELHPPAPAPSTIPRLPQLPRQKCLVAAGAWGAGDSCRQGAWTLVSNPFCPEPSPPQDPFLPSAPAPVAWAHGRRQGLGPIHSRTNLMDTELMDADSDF

For `Cc1cc(F)cnc1-c1cc(N2CCC(NC(=O)CC(C)(C)O)CC2)ncc1Cl` [Example A-146, N-[1-(5′-chloro-5-fluoro-3-methyl-2,4′-bipyridin-2′-yl)piperidin-4-yl]-3-hydroxy-3-methylbutanamide], the figures for the half-maximal inhibitory concentration (IC50) in assay [1] and in assay [2] were 20.7 nM and 52.2 nM, respectively. In assay [2], the inhibition at 0.05 µM was 87.4%.
In the same order, the values of `CS(=O)(=O)NC1CCN(c2cc(-c3ncc(Cl)cc3F)c(Cl)cn2)CC1` [Example A-17, N-[1-(5,5′-dichloro-3-fluoro-2,4′-bipyridin-2′-yl)piperidin-4-yl]methanesulfonamide] are 60 nM, 511 nM and 63%.
`CS(=O)(=O)NC1CCN(c2cc(-c3ccc(F)cn3)c(Cl)cn2)CC1` [Example A-18, N-[1-(5′-chloro-5-fluoro-2,4′-bipyridin-2′-yl)piperidin-4-yl]methanesulfonamide]: in assay [1], the IC50 – broadly, the concentration that inhibits the measured activity by half – amounted to 82 nM. In assay [2], the 50% inhibitory concentration (IC50) was found to be 343 nM and the inhibition at 0.05 µM turned out to be 58.9%.
For `Cc1cccnc1-c1cc(N2CCN(C(=O)CCS(C)(=O)=O)CC2)ncc1Cl` [Example A-93, 5′-chloro-3-methyl-2′-{4-[3-(methylsulfonyl)propanoyl]piperazin-1-yl}-2,4′-bipyridine], in that order: 12.4 nM, 9.84 nM and 97.5%.
For `Cc1cc(F)cnc1-c1cc(N2CCC(NS(=O)(=O)CCO)CC2)ncc1Cl` [Example A-149, N-[1-(5′-chloro-5-fluoro-3-methyl-2,4′-bipyridin-2′-yl)piperidin-4-yl]-2-hydroxyethanesulfonamide], in that order: 10.1 nM, 20.7 nM and 90.6%.
In assay [1], `CCN(CC)C(=O)COC1CCN(c2cc(-c3ncccc3C)c(Cl)cn2)CC1` [Example A-41, 2-{[1-(5′-chloro-3-methyl-2,4′-bipyridin-2′-yl)piperidin-4-yl]oxy}-N,N-diethylacetamide] came in with an IC50 of 28.5 nM. Besides, in assay [2], the 50% inhibitory concentration (IC50) was found to be 131 nM and the inhibition at 0.05 µM was 82.3%.
For `Cc1cc(F)cnc1-c1nc(N2CCC(NS(C)(=O)=O)CC2)ccc1Cl` [Example A-154, N-[1-(3-chloro-5′-fluoro-3′-methyl-2,2′-bipyridin-6-yl)piperidin-4-yl]methanesulfonamide], in that order: 39.5 nM, 29.2 nM and 94.3%.
For the compound `Cc1cnc(-c2cc(N3CCC(S(C)(=O)=O)CC3)ncc2Cl)c(C)c1` [Example A-134, 5′-chloro-3,5-dimethyl-2′-[4-(methylsulfonyl)piperidin-1-yl]-2,4′-bipyridine], the IC50 in assay [1] turned out to be 37.7 nM. In addition, in assay [2], the half-inhibitory concentration (IC50) worked out at 114 nM and the inhibition at 0.05 µM was found to be 80.8%.
In turn, `COCCC(=O)NC1CCN(c2cc(-c3ncccc3C)c(Cl)cn2)CC1` [Example A-27, N-[1-(5′-chloro-3-methyl-2,4′-bipyridin-2′-yl)piperidin-4-yl]-3-methoxypropanamide] registered an IC50 in assay [1] of 21.1 nM. In addition, in assay [2], the IC50 is 107 nM and the inhibition at 0.05 µM worked out at 75.7%.
Consider `Cc1cnc(-c2cc(N3CCC(NC(=O)CCS(C)(=O)=O)CC3)ncc2Cl)c(C)c1` [Example A-122, N-[1-(5′-chloro-3,5-dimethyl-2,4′-bipyridin-2′-yl)piperidin-4-yl]-3-(methylsulfonyl)propanamide], for which, in assay [1], half-maximal inhibition (IC50) was put at 5.49 nM. Moreover, in assay [2], the 50% inhibitory concentration (IC50) is 14.7 nM and the inhibition at 0.05 µM came out at 103%.
For `CS(=O)(=O)CC1CCN(c2ccc(Cl)c(-c3ccccn3)n2)CC1` [Example A-53, 3-chloro-6-{4-[(methylsulfonyl)methyl]piperidin-1-yl}-2,2′-bipyridine], in that order: 27.3 nM, 38.2 nM and 93.3%.
Turning to `CS(=O)(=O)NC1CCN(c2ccc(Cl)c(-c3ccccn3)n2)CC1` [Example A-15, N-[1-(3-chloro-2,2′-bipyridin-6-yl)piperidin-4-yl]methanesulfonamide], the half-maximal inhibitory concentration (IC50) amounted to 78.5 nM in assay [1] and 34.3 nM in assay [2]. In assay [2], the inhibition at 0.05 µM turned out to be 83%.
For `CCOC(=O)N1CCN(c2cc(-c3ncccc3C)c(Cl)cn2)CC1` [Example A-39, ethyl 4-(5′-chloro-3-methyl-2,4′-bipyridin-2′-yl)piperazine-1-carboxylate], in assay [1], the concentration for half-maximal inhibition (IC50) was 48.5 nM. Besides, in assay [2], the IC50 worked out at 109 nM and the inhibition at 0.05 µM amounted to 80.7%.
The compound `Cc1cccnc1-c1cc(N2CCC(CS(C)(=O)=O)CC2)ncc1Cl` [Example A-51, 5′-chloro-3-methyl-2′-{4-[(methylsulfonyl)methyl]piperidin-1-yl}-2,4′-bipyridine] gave an IC50 in assay [1] of 23.6 nM. In addition, in assay [2], the concentration for half-maximal inhibition (IC50) came out at 35.8 nM and the inhibition at 0.05 µM worked out at 87.8%.
In the same order, the values of `NS(=O)(=O)CC1CCN(c2ccc(Cl)c(-c3ccccn3)n2)CC1` [Example A-91, 1-[1-(3-chloro-2,2′-bipyridin-6-yl)piperidin-4-yl]methanesulfonamide] are 28.6 nM, 26.3 nM and 92.7%.
For `COc1cnc(NC(=O)C2CCN(c3cc(-c4ncccc4C)c(Cl)cn3)CC2)cn1` [Example A-59, 1-(5′-chloro-3-methyl-2,4′-bipyridin-2′-yl)-N-(5-methoxypyrazin-2-yl)piperidine-4-carboxamide], in that order: 21.2 nM, 71.4 nM and 89.5%.
For `Cc1cnc(-c2ccnc(N3CCC(NS(C)(=O)=O)CC3)c2)c(C)c1` [Example A-143, N-[1-(3,5-dimethyl-2,4′-bipyridin-2′-yl)piperidin-4-yl]methanesulfonamide], in that order: 10.4 nM, 12.2 nM and 96.3%.
`Cc1cccnc1-c1ccnc(N2CCC(NS(C)(=O)=O)CC2)n1` [Example A-50, N-{1-[4-(3-methylpyridin-2-yl)pyrimidin-2-yl]piperidin-4-yl}methanesulfonamide] showed an IC50 in assay [1] of 27.4 nM. Also, in assay [2], the IC50 was 17.7 nM and the inhibition at 0.05 µM is 97.1%.
In the same order, the values of `Cc1cnc(-c2cc(N3CCC(NS(C)(=O)=O)CC3)ncc2Cl)c(C)c1` [Example A-14, N-[1-(5′-chloro-3,5-dimethyl-2,4′-bipyridin-2′-yl)piperidin-4-yl]methanesulfonamide] are 16.4 nM, 6.4 nM and 95%.
